Where two headings read alike, the source gives them in different places.
Assays:
[1] = target: T1, human aromatase (Homo sapiens, UniProt P11511); experiment: Aromatase inhibition, in vitro radiosubstrate incubation (testosterone to E2 conversion), human placental microsomes; assay type: biochemical; settings: for remaining activity at 10 µM: read-out: Arom Rel.conv. ± SD
T1 construct: from tissue; host or cells: human term placenta, microsomal fraction
T1 sequence (P11511 1-503): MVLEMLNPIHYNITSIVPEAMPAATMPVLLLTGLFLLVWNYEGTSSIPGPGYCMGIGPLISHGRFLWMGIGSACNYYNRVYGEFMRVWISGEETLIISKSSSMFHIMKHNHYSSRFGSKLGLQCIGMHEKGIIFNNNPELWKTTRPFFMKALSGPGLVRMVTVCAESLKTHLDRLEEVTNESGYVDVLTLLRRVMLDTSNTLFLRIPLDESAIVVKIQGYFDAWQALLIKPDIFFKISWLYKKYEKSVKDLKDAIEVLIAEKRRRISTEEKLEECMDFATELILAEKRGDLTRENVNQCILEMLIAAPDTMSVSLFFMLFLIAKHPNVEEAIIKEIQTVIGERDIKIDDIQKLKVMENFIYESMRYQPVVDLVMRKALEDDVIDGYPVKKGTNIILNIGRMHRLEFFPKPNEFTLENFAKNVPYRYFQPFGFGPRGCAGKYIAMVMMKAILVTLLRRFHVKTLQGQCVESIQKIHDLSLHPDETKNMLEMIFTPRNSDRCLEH
Procedure: (§1) Enzyme inhibition studies were performed by in vitro radiosubstrate incubations using human term placenta cytosol and microsomas as enzyme sources. […] Relative conversions compared to non-inhibited controls (100%) were measured in the presence of 10 µM concentration of the test compound. […] Mechanistic and kinetic investigations were performed and inhibitory constants (Ki) were determined for selected compounds.
(§2) Enzymatic incubations were carried out in the HEPES buffer medium at a final volume of 200
(§3) µl. The substrate was added to the incubate in 20 µl of a 25 v/v% propylene glycol in HEPES buffer solution, whereas test compounds were applied in 10 µl of dimethyl sulfoxide solution.
Incubations were performed at 37 °C and terminated by cooling and the addition of organic solvents of the subsequent extraction procedure. Control samples with no inhibitor and blank samples were incubated simultaneously. The radioactivity of the products formed was measured by means of liquid scintillation counting (LSC) and taken as indicator of the […]
In the aromatase assays the microsoma suspension was incubated with appropriate concentration of unlabelled testosterone (2) substrate spiked with [1,2,6,7-3H]testosterone tracer, and in the presence of 0.1 mM NADPH cofactor excess. (In this case, solution of the substrate was prepared with acetonitrile instead of propylene glycol.) Incubation time was 40 min. The incubation mixture was extracted with toluene, then the toluene phase was drained and washed with HEPES buffer. Aromatase products containing phenolic hydroxy group were extracted with 1.2 M sodium hydroxide solution from the toluene extract and the alkaline phase was measured in the LSC. […]
was extracted with toluene. […]
(§4) In the general procedure, incubations were performed as described. Concentrations of the substrates were 1.0 µM, and the test compounds were applied at 10 µM final concentration in the incubate. Relative conversions compared to non-inhibited controls (100%) were determined. The assays were performed in triplicate, and the mean value and the standard deviation (SD) were calculated. […]
(§5) these cases, conversions were measured at 10–15 different concentrations in the appropriate interval between 0.001–50 µM. IC50 results were calculated by using unweighted iterative least squares logistic curve fitting by means of the “absolute IC50 calculation“ function of the GraphPad Prism 4.0 software (GraphPad Software, Inc., San Diego, CA, USA).
Kinetic analyses were performed via measurement of the enzymatic transformation using different fixed substrate concentrations and varied inhibitor concentrations. The Dixon’s linear transformation (1/velocity vs. inhibitor concentration) was applied for evaluation and the inhibition constant (Ki) was determined from abscissa of intersection of the lines of different substrate concentrations. Mechanism of binding was identified according to the […]

[2] = target: T2, steroid sulfatase (STS) (Homo sapiens, UniProt P08842); experiment: STS inhibition, in vitro radiosubstrate incubation (release of E1 from E1S), human placental microsomes; Dixon kinetic analysis; assay type: biochemical; settings: for remaining activity at 10 µM: read-out: STS Rel.conv. ± SD
T2 construct: from tissue; host or cells: human term placenta, microsomal fraction
T2 sequence (P08842 22-583): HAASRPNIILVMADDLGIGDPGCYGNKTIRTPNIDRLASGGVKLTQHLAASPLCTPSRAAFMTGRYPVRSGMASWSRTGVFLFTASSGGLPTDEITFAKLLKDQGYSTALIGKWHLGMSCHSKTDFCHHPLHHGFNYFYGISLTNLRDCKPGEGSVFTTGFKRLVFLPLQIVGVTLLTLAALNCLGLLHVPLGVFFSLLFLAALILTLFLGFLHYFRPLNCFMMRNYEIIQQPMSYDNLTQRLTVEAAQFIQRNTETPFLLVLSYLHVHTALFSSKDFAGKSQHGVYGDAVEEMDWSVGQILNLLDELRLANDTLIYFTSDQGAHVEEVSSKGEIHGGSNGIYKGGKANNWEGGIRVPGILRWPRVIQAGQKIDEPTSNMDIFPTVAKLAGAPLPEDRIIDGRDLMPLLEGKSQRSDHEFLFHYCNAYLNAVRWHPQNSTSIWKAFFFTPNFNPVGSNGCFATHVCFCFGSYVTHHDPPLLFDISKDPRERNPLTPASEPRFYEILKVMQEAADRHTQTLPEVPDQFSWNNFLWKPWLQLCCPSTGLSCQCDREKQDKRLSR
Procedure: as §1
Kinetic analyses of selected compounds 7a and 16c were performed by measurement of enzyme activities using different fixed substrate concentrations and varied inhibitor concentrations.
as §2, §3
(§6) Incubations were performed at 37 °C and terminated by cooling and the addition of organic solvents of the subsequent extraction procedure. Control samples with no inhibitor and blank samples were incubated simultaneously. […]
The incubation time was 2.5 min. […]
as §4, §5
(§7) Kinetic analyses were performed via measurement of the enzymatic transformation using different fixed substrate concentrations and varied inhibitor concentrations. The Dixon’s linear transformation (1/velocity vs. inhibitor concentration) was applied for evaluation and the inhibition constant (Ki) was determined from abscissa of intersection of the lines of different substrate concentrations. Mechanism of binding was identified according to the Dixon’s graphs and the secondary plot of slopes of the Dixon’s lines vs. 1/substrate […]
The inhibitor compounds were preincubated with the appropriate placenta fraction in a volume of 4.0 µl at 37 °C for various time periods (2.5-40 min). Following this procedure, […]

[3] = target: T3, 17β-hydroxysteroid dehydrogenase type 1 (17β-HSD1) (Homo sapiens, UniProt P14061); experiment: 17β-HSD1 inhibition, in vitro radiosubstrate incubation (E1 to E2), human placental cytosol; Dixon kinetic analysis; assay type: biochemical; settings: for IC50: E1 substrate 1.0 µM, NADPH excess
T3 sequence (P14061 1-328): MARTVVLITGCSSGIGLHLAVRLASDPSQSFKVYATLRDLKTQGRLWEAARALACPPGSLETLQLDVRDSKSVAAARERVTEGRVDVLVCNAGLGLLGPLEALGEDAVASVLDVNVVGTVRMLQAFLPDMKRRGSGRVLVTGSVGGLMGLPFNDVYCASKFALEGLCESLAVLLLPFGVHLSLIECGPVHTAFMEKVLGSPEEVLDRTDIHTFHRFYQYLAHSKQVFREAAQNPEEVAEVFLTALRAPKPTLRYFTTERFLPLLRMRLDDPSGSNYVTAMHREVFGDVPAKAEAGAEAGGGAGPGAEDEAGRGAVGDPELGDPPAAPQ
Procedure: as §1
Inhibitors that bind to the steroid site of 17β-HSD1 can bind to both the free enzyme and the binary enzyme–cofactor complex by random kinetic mechanism.
as §2, §3, §6
The incubation time was 2.5 min. The product 17β-estradiol (E2, 5) was extracted with ethyl acetate and isolated by a TLC method (details are published in our earlier reference).
as §4, §5, §7
The inhibitor compounds were preincubated with the appropriate placenta fraction in a volume of 4.0 µl at 37 °C for various time periods (2.5-40 min). Following this procedure, samples were diluted with the incubation medium to 50-fold. Enzyme activity measurements

[4] = target: T3, 17β-hydroxysteroid dehydrogenase type 1 (17β-HSD1); settings: earlier paper of the authors; read-out: 17β-HSD1 IC50 ± SD; cited from earlier work
[5] = 10 µM test compound, non-inhibited control 100%, mean ± SD, n = 3
[6] = E1S substrate 1.0 µM, read-out: STS IC50 ± SD

| Compound | remaining activity at 10 µM [1, 5] | remaining activity at 10 µM [2, 5] | IC50 ([3]; read-out: 17β-HSD1 IC50 ± SD) | IC50 [4] | also measured |
| --- | --- | --- | --- | --- | --- |
| C[C@]12CC[C@@H]3c4cc(I)c(O)cc4CC[C@H]3[C@@H]1CCC2=O [6a, 2-Iodoestrone] | 66% | 64 ± 3% | 0.064 ± 0.034 µM |  | IC50 ([1]; testosterone substrate 1.0 µM, read-out: Arom IC50 ± SD): > 10 µM |
| C[C@]12CC[C@@H]3c4ccc(O)c(Br)c4CC[C@H]3[C@@H]1CCC2=O [7b, 4-bromoestrone] | 91 ± 6% |  | 0.3 ± 0.2 µM |  | IC50 [2, 6]: 0.89 ± 0.3 µM |
| C[C@]12CC[C@@H]3c4ccc(O)c(Cl)c4CC[C@H]3[C@@H]1CCC2=O [7c] |  |  |  |  | remaining activity at 10 µM [1]: 92 ± 3%; IC50 [2]: 1.6 ± 0.3 µM; IC50 ([3]; 17β-HSD1 IC50 ± SD): 0.6 ± 0.16 µM |
| C[C@]12CC[C@@H]3c4cc(I)c(O)c(I)c4CC[C@H]3[C@@H]1CCC2=O [8a] | 86 ± 6% | 80 ± 13% |  |  | 17β-HSD1 Rel.conv. ± SD [3, 5]: 55 ± 7% |
| C[C@]12CC[C@@H]3c4cc(Br)c(O)c(Br)c4CC[C@H]3[C@@H]1CCC2=O [8b] | 81 ± 5% |  | 0.96 ± 0.45 µM |  | IC50 [2, 6]: 2.1 ± 0.6 µM |
| C[C@]12CC[C@@H]3c4cc(Cl)c(O)c(Cl)c4CC[C@H]3[C@@H]1CCC2=O [8c] |  |  |  |  | remaining activity at 10 µM [1]: 82 ± 4%; IC50 [2]: 3 ± 0.9 µM; IC50 ([3]; 17β-HSD1 IC50 ± SD): 0.59 ± 0.16 µM |
| C[C@@]12CC[C@@H]3c4cc(I)c(O)cc4CC[C@H]3[C@@H]1CCC2=O [10a] | 82 ± 10% | 83 ± 3% |  | 0.59 ± 0.23 µM |  |
| C[C@@]12CC[C@@H]3c4cc(Br)c(O)cc4CC[C@H]3[C@@H]1CCC2=O [10b] | 100 ± 5% | 81 ± 6% |  | 1.2 ± 0.3 µM |  |
| C[C@@]12CC[C@@H]3c4cc(Cl)c(O)cc4CC[C@H]3[C@@H]1CCC2=O [10c] | 106 ± 6% | 57 ± 1% | 0.33 ± 0.1 µM |  |  |
| C[C@@]12CC[C@@H]3c4ccc(O)c(Br)c4CC[C@H]3[C@@H]1CCC2=O [11b] | 78 ± 1% |  |  | 2.1 ± 1.2 µM | IC50 [2, 6]: 8.5 ± 3.1 µM |
| C[C@@]12CC[C@@H]3c4ccc(O)c(Cl)c4CC[C@H]3[C@@H]1CCC2=O [11c] |  |  |  |  | remaining activity at 10 µM [1]: 98 ± 3%; remaining activity at 10 µM [2]: 80 ± 7%; IC50 ([3]; 17β-HSD1 IC50 ± SD): 2.6 ± 1 µM |
| C[C@@]12CC[C@@H]3c4cc(Br)c(O)c(Br)c4CC[C@H]3[C@@H]1CCC2=O [12b] | 108 ± 11% | 71 ± 4% |  | 2.7 ± 0.1 µM |  |

From publication PMC6147116 (Journal of Enzyme Inhibition and Medicinal Chemistry, 2018)
